Test results reported in PubChem BioAssay (NCI).
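In this assay, cells in 96-well plates receive the compound at five concentrations for 48 hours. Endpoints are linearly interpolated between the surrounding concentrations. Here, GI50 denotes the concentration required for 50% inhibition of growth. At the TGI there is no net growth.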

Experiments:
Test in all cases: NCI tumour cell line growth inhibition, 48 h
UO-31 renal = system: UO-31 renal
HT29 colon = system: HT29 colon
NCI-H460 lung = system: NCI-H460 lung
LOX IMVI melanoma = system: LOX IMVI melanoma
OVCAR-5 ovarian = system: OVCAR-5 ovarian
RPMI-8226 leukemia = system: RPMI-8226 leukemia
SNB-19 CNS = system: SNB-19 CNS
IGROV1 ovarian = system: IGROV1 ovarian
TK-10 renal = system: TK-10 renal

Compound	GI50 (UO-31 renal)	TGI (UO-31 renal)	GI50 (HT29 colon)	TGI (HT29 colon)	GI50 (NCI-H460 lung)	TGI (NCI-H460 lung)	GI50 (LOX IMVI melanoma)	TGI (LOX IMVI melanoma)	GI50 (OVCAR-5 ovarian)	TGI (OVCAR-5 ovarian)	GI50 (RPMI-8226 leukemia)	TGI (RPMI-8226 leukemia)	GI50 (SNB-19 CNS)	TGI (SNB-19 CNS)	GI50 (IGROV1 ovarian)	TGI (IGROV1 ovarian)	GI50 (TK-10 renal)	TGI (TK-10 renal)
Nc1nccc(-c2c(-c3ccc(F)cc3)ncn2C2CCC(O)CC2)n1 (centres undefined)	1.79 µM	> 23.2 µM	6.8 µM	> 25 µM	4.95 µM	> 25 µM	9.34 µM	> 25 µM	8.45 µM	> 25 µM	11.7 µM	> 25 µM	15.6 µM	> 25 µM	4.32 µM	24.8 µM	3.72 µM	24.4 µM
COc1cc2ncn(-c3cc(OCc4cccs4)c(C(N)=O)s3)c2cc1OC	2.77 µM	> 25 µM	0.875 µM	> 25 µM	1.06 µM	> 10.5 µM	1.19 µM	> 19.2 µM	2.55 µM	> 25 µM	3.24 µM	> 25 µM	3.25 µM	> 25 µM	2.75 µM	> 25 µM	9.21 µM	> 25 µM
COc1cc2cc(Oc3ccc(NC(=O)Nc4ccc(Cl)c(C(F)(F)F)c4)cc3)c(C)nc2cc1OCCN1CCOCC1	1.4 µM	3.34 µM	2.57 µM	11.2 µM	1.65 µM	3.62 µM	1.39 µM	2.81 µM	4.02 µM	65.2 µM	0.936 µM	4.34 µM	3.23 µM	19.8 µM	2.43 µM	23.2 µM	4.97 µM	35.2 µM
O=C(O)/C=C(\c1nc2ccc([N+](=O)[O-])cc2[nH]1)c1cc(Cl)ccc1O	1.54 µM	9.01 µM	3.51 µM	14.4 µM	3.03 µM	17.9 µM	2.41 µM	11.1 µM	5.29 µM	43.3 µM	1.45 µM	37.7 µM	3.5 µM	> 100 µM	2.92 µM	39.5 µM	4.11 µM	15.4 µM
Cc1c(C(=O)C/C(=N/NC(=O)C[N+](C)(C)C)C(=O)Nc2ccc(Cl)cc2)[n+](=O)c2ccccc2n1O	–	> 100 µM	–	> 100 µM	–	> 100 µM	–	> 100 µM	–	> 100 µM	–	> 100 µM	–	> 100 µM	–	> 100 µM	–	> 100 µM
O=C(CC1C(=O)NN(c2ccc(Br)cc2)C1=O)c1cc(O)ccc1O (centres undefined)	41.2 µM	> 50 µM	22 µM	> 50 µM	23 µM	> 50 µM	8.3 µM	19.5 µM	34.7 µM	> 50 µM	16.5 µM	> 50 µM	22.7 µM	> 50 µM	40 µM	> 50 µM	15.5 µM	> 50 µM
